How the values were obtained:
SREBP = experiment: Reporter Screening Assay (SRE-luciferase reporter, HepG2); format: cell-based; settings: Homo sapiens; SRE-luciferase reporter HepG2 cells, 24 hours, 0.01 uM to 10 uM; read-out: I: Reporter Screening Assay (Ave EC50 (nM))
Experimental: Reporter Screening Assay: This assay was used to evaluate the effect on transcriptional activity SREBP of selected compounds using an SRE-luciferase reporter construct. On day 1, 10,000 cells were seeded in a 96 well (white) plate as per the plate map in Growth media without antibiotics. Cells were incubated at 37° C. for 8 hours. After 8 hours, cells were washed with DPBS for complete removal of FBS. DPBS was completely removed and Growth media was replaced with phenol free treatment medium (90 μl) with different FBS concentrations. The cells were then incubated at 37° C. for 24 hours with varying doses (0.01 uM to 10 uM) of compounds. Then a Luciferase assay was performed.
Reagents for performing Luciferase assay were stored at −20° C. To a tube of lyophilized assay substrate was added 1 mL Substrate Solvent and mixed well. The Substrate tube after reconstitution was covered with aluminum foil so as to keep it protected from light. The assay buffer was thawed to room temperature. To 20 mL Assay Buffer was added 200 μL of reconstituted 100× Substrate and mixed well. The reconstituted substrate as well as the assay solution (buffer+substrate) was protected from light throughout the procedure by keeping it covered with aluminum foil. Using a multi-channel pipette, 100 μL Assay Solution (buffer+substrate) was added directly to each sample well in Plate 1, which was incubated for 30 min (plate was covered with aluminum foil). After 30 min incubation, the plate was read for total luminescence. Each well was read for 2 seconds in a plate luminometer. (Microplate reader Envision Microplate reader from Perkin Elmer). Precaution was taken to incubate plate exactly for 30 min prior to reading on the plate reader.
SREBPv1 Reporter cell line: HepG2—#32251. Growth Medium: MEM (Corning 10-010), 10% FBS, 1% GlutaMax (Invitrogen Catalog #35050061), […] (Invitrogen Catalog # A1113803) and 1% Penicillin-Streptomycin (Pen-Strep). Treatment Media: Phenol-free MEM (Invitrogen Catalog #51200-038) and 1% GlutaMax (Invitrogen Catalog #35050061). Luciferase Assay: LightSwitch Luciferase Assay Kit (Catalog #32032). LDH assay: Pierce LDH Cytotoxicity Assay Kit (Catalog # SD249616).

[1] = Stability in human liver microsomes; format: in vitro ADME; settings: 37° C., NADPH
Experimental: Half-Life Human Microsomes:
(§1) Compounds were evaluated for stability in human liver microsomes. A 10 mM stock solution of the compound being evaluated was prepared in DMSO and diluted with water:acetonitrile (1:1) to a concentration of 1 mM. A working concentration of 100 μM was prepared by further dilution with water:acetonitrile (1:1). To make the preincubation mixture, 2.5 μL of the diluted compound was combined with 75 μL of human liver microsomes at 3.33 mg/mL, and 85 μL of 100 mM potassium phosphate buffer, and this mixture was pre-incubated for 10 min at 37° C. To make the 60 minute mixture without cofactor, 32.5 μL of the preincubation mixture was combined with 17.5 μL of 100 mM potassium phosphate buffer and incubated for 60 min at 37° C. To make the 0 min sample with cofactor (NADPH), 16.25 μL of the preincubation mixture was combined with 200 μL of acetonitrile containing internal standard and 8.75 μL of cofactor (NADPH). To make the incubation mixture, 62 μL of cofactor (2.85 mM) was combined with the remaining incubation mixture, and incubated for 60 min at 37° C. To prepare the sample mixture to be evaluated, 25 μL incubation mixture was combined with 200 μL of acetonitrile containing internal standard and vortexed for 5 min at 1200 rpm, then centrifuged for 10 min at 4000 rpm. The supernatant was diluted 2 fold with water and injected on LC-MS/MS. The sample mixture was evaluated by LC-MS/MS using 10 mM ammonium acetate with 0.100 FA as the aqueous mobile phase, and methanol as the organic mobile phase.

[2] = Stability in mouse liver microsomes; format: in vitro ADME
Experimental: as §1
Half-Life Mouse Microsomes:
Compounds were evaluated in mouse liver microsomes following a similar procedure as described above for human liver microsomes. A similar procedure could be used to evaluate compounds in rat liver microsomes.

In the case of `CC(C)(O)Cc1cc(-c2cc(-c3ccc(NS(C)(=O)=O)cc3Cl)sc2F)ccn1` [Compound I-9085, N-(3-chloro-4-(5-fluoro-4-(2-(2-hydroxy-2-methylpropyl)pyridin-4-yl)thiophen-2-yl)phenyl)methanesulfonamide], the EC50 (SREBP) is reported as over 500 nM, the “percent of compound remaining after 60 min in human liver microsomes” value (shortened to “percent of compound remaining”) [1] is reported as “+++ (>60.1 = +++)” and the “percent parent remaining after 60 min in liver microsomes” value (“percent parent remaining after 60 min” for short) [2] is reported as “+++ (>60.1 = +++)”.
For `CC(C)OC(=O)Nc1ccc(-c2cc(-c3ccnc(C(C)(C)CO)c3)cs2)c(Cl)c1` [Compound I-8907, Isopropyl (3-chloro-4-(4-(2-(1-hydroxy-2-methylpropan-2-yl)pyridin-4-yl)thiophen-2-yl)phenyl)carbamate], the EC50 (SREBP) was 250 to 500 nM, the “percent of compound remaining” value [1] was “+++ (>60.1 = +++)” and the “percent parent remaining after 60 min” value [2] was “+++ (>60.1 = +++)”.
In the case of `CC(C)(O)c1cc(-c2csc(-c3ccc(NC(=O)OC4CC4)cc3Cl)c2)ccn1` [Compound I-9065, cyclopropyl (3-chloro-4-(4-(2-(2-hydroxypropan-2-yl)pyridin-4-yl)thiophen-2-yl)phenyl)carbamate], the EC50 (SREBP) is reported as over 500 nM, the “percent of compound remaining” value [1] is reported as “+++ (>60.1 = +++)” and the “percent parent remaining after 60 min” value [2] is reported as “+++ (>60.1 = +++)”.
In the case of `CC(C)OC(=O)Nc1ccc(-c2cc(-c3ccnc(C(C)(C)C)c3)cs2)c(Cl)c1` [Compound I-8741, Isopropyl (4-(4-(2-(tert-butyl)pyridin-4-yl)thiophen-2-yl)-3-chlorophenyl)carbamate], the EC50 (SREBP) is reported as under 249 nM, the “percent of compound remaining” value [1] is reported as “+++ (>60.1 = +++)” and the “percent parent remaining after 60 min” value [2] is reported as “+++ (>60.1 = +++)”.
With `CC(C)NC(=O)Nc1ccc(-c2cc(-c3ccnc(C(C)(C)C)c3)cs2)c(Cl)c1` [Compound I-8731, 1-(4-(4-(2-(tert-butyl)pyridin-4-yl)thiophen-2-yl)-3-chlorophenyl)-3-isopropylurea] the EC50 (SREBP) was under 249 nM, the “percent of compound remaining” value [1] was “++ (30.1-60 = ++)” and the “percent parent remaining after 60 min” value [2] was “++ (30.1-60 = ++)”.
For `CC(C)(O)C(O)c1cc(-c2csc(-c3ccc(NS(C)(=O)=O)cc3Cl)c2)ccn1` (stereo not drawn) [Compound I-9075, N-(3-chloro-4-(4-(2-(1,2-dihydroxy-2-methylpropyl)pyridin-4-yl)thiophen-2-yl)phenyl)methanesulfonamide], the EC50 (SREBP) was over 500 nM, the “percent of compound remaining” value [1] was “+++ (>60.1 = +++)” and the “percent parent remaining after 60 min” value [2] was “+++ (>60.1 = +++)”.
For `CC(C)NS(=O)(=O)Nc1ccc(-c2cc(-c3ccnc(C(C)(C)CO)c3)cs2)c(Cl)c1` [Compound I-8941], the EC50 (SREBP) was under 249 nM, the “percent of compound remaining” value [1] was “++ (30.1-60 = ++)” and the “percent parent remaining after 60 min” value [2] was “++ (30.1-60 = ++)”.
In the case of `CC(C)OC(=O)Nc1ccc(-c2cc(-c3ccnc4c3OCCO4)cs2)c(Cl)c1` [Compound I-9062, isopropyl (3-chloro-4-(4-(2,3-dihydro-[1,4]dioxino[2,3-b]pyridin-8-yl)thiophen-2-yl)phenyl)carbamate], the EC50 (SREBP) is reported as under 249 nM, the “percent of compound remaining” value [1] is reported as “+++ (>60.1 = +++)” and the “percent parent remaining after 60 min” value [2] is reported as “+++ (>60.1 = +++)”.
For `CC(C)(C)c1cc(-c2csc(-c3ccc(NC(=O)NCCN4CCCC4)cc3Cl)c2)ccn1` [Compound I-8761, 1-(4-(4-(2-(tert-butyl)pyridin-4-yl)thiophen-2-yl)-3-chlorophenyl)-3-(2-(pyrrolidin-1-yl)ethyl)urea], the EC50 (SREBP) was over 500 nM, the “percent of compound remaining” value [1] was “+++ (>60.1 = +++)” and the “percent parent remaining after 60 min” value [2] was “+++ (>60.1 = +++)”.
With `CCOC(=O)Nc1ccc(-c2cc(-c3ccnc(C(C)(C)C)c3)cs2)c(Cl)c1` [Compound I-8735, Ethyl (4-(4-(2-(tert-butyl)pyridin-4-yl)thiophen-2-yl)-3-chlorophenyl)carbamate] the EC50 (SREBP) was 250 to 500 nM, the “percent of compound remaining” value [1] was “+++ (>60.1 = +++)” and the “percent parent remaining after 60 min” value [2] was “+++ (>60.1 = +++)”.
